The test system of the assay is HCT116 cells. Put plainly: Nicotinic Acid Rescue Cytotoxicity Assay, first method: cytotoxicity to HCT116 cells in presence and absence of 10 μM nicotinic acid. Particulars: Homo sapiens, HCT-116, 72 h. Format: cell-based. On the procedure: Additionally, Nicotinic Acid (NA) rescue of cytotoxicity of Nampt inhibitors was assessed by two distinct methods. In the first method, Nampt1 inhibitor cytotoxicity was evaluated in the presence and absence of exogenous nicotinic acid (NA) at a fixed concentration. […] Twenty four hours after cells were plated, the media was removed and replaced with media containing 10 μM nicotinic acid. Compounds were then immediately added. Cell viability was then assessed at 72 h.
Using the first of the two assays described above, the 90 compounds shown in Table 5, below, were tested for cytotoxicity towards Naprt1-proficient HCT116 cells, and for the ability of NA to block the observed cytotoxicity (or “rescue” the cells from the cytotoxic activity of the tested compound). The compounds listed are referred to by a unique rescue analysis example number (i.e., R1, R2 . . . R90) that is used as a reference number in Table 4, in which the results of the cytotoxicity and rescue assays are presented.

[1] abbreviates: absence of nicotinic acid, read-out: HCT116 72 h cytotoxicity.
Where [2] appears, read: presence of 10 μM nicotinic acid, read-out: HCT116 72 h cytotoxicity with 10 μM Nicotinic Acid.

Read-outs that look alike come from different tables or passages of the source. A value given as a limit tells only on which side of the number the result lay.

Take `O=C(NCc1cccnc1)Nc1ccc(NS(=O)(=O)c2ccc([N+](=O)[O-])c(C(F)(F)F)c2)cc1` [Example R50, 4-Nitro-N-(4-{[(pyridin-3-ylmethyl)carbamoyl]amino}phenyl)-3-(trifluoromethyl)benzenesulfonamide]: the IC50 under setting [1] worked out at 6.7 nM and the IC50 under setting [2] was > 10000 nM.

Regarding `CC(C)=CCN(Cc1cc2c(=O)n(C)c(C)nc2cc1Cl)c1ccc(C(=O)NCc2cccnc2)cc1` [Example R51, 4-{[(7-Chloro-2,3-dimethyl-4-oxo-3,4-dihydroquinazolin-6-yl)methyl](3-methylbut-2-en-1-yl)amino}-N-(pyridin-3-ylmethyl)benzamide], the IC50 by setting is: under setting [1], 9.5 nM; under setting [2], > 10000 nM.

Regarding `CC(C)=CCN(Cc1cc2c(=O)n(C)cnc2cc1Cl)c1ccc(C(=O)NCc2cccnc2)cc1` [Example R52, 4-{[(7-Chloro-3-methyl-4-oxo-3,4-dihydroquinazolin-6-yl)methyl](3-methylbut-2-en-1-yl)amino}-N-(pyridin-3-ylmethyl)benzamide], the IC50 is, setting by setting: under setting [1], 7.3 nM; under setting [2], > 10000 nM.

For the compound `CCOC(=O)c1c[nH]c2ccc(C(=O)Nc3ccc(C(=O)NCc4cccnc4)cc3)cc2c1=O` [Example R53, ethyl 4-oxo-6-({4-[(pyridin-3-ylmethyl)carbamoyl]phenyl}carbamoyl)-1,4-dihydroquinoline-3-carboxylate], the IC50 under setting [1] turned out to be 6.8 nM and the IC50 under setting [2] is > 10000 nM.

Turning to `O=C(NCc1cccnc1)Nc1ccc(S(=O)(=O)Nc2ccccc2Cl)cc1` [Example R54, N-(2-chlorophenyl)-4-{[(pyridin-3-ylmethyl)carbamoyl]amino} benzenesulfonamide], the IC50 is 71.5 nM under setting [1] and > 10000 nM under setting [2].

`O=C(NCc1cccnc1)Nc1ccc(NC(=O)c2ccccc2-c2ccccc2)cc1` [Example R55, N-(4-{[(pyridin-3-ylmethyl)carbamoyl]amino}phenyl)biphenyl-2-carboxamide]: the IC50 was 48.8 nM under setting [1] and > 1000 nM under setting [2].

As to `O=C(NCc1cccnc1)Nc1ccc(NS(=O)(=O)c2ccccc2Br)cc1F` [Example R56, 2-bromo-N-(3-fluoro-4-{[(pyridin-3-ylmethyl)carbamoyl]amino}phenyl)benzene-sulfonamide], the IC50 reads like this: under setting [1], 50 nM; under setting [2], > 1000 nM.

As for `O=C(NCc1cccnc1)Nc1ccc(NS(=O)(=O)c2cc(C(F)(F)F)ccc2Br)cc1` [Example R57, 2-Bromo-N-(4-{[(pyridin-3-ylmethyl)carbamoyl]amino}phenyl)-5-(trifluoromethyl)benzenesulfonamide], the IC50 under setting [1] came to 0.5 nM and the IC50 under setting [2] is > 10000 nM.

Take `O=C(NCc1cccnc1)Nc1ccc(C(=O)Nc2ccccc2-c2ccccc2)cc1` [Example R58, N-(biphenyl-2-yl)-4-{[(pyridin-3-ylmethyl)carbamoyl]amino}benzamide]: the IC50 under setting [1] came out at 1.6 nM and the IC50 under setting [2] is > 10000 nM.

On to `N#C/N=C(/NCc1ccc(NS(=O)(=O)c2ccccc2-c2ccccc2)cc1)Nc1ccncc1` [Example R59, N-(4-{[N″-cyano-N′-(pyridin-4-yl)carbamimidamido]methyl}phenyl) biphenyl-2-sulfonamide], for which the IC50 is, setting by setting: under setting [1], 0.6 nM; under setting [2], > 5000 nM.

For `O=C(NCc1cccnc1)Nc1ccc(NS(=O)(=O)c2cc(C(F)(F)F)ccc2-c2ccccc2)cc1` [Example R60, N-(4-{[(pyridin-3-ylmethyl)carbamoyl]amino}phenyl)-4-(trifluoromethyl)biphenyl-2-sulfonamide], the IC50 by setting is: under setting [1], 3.7 nM; under setting [2], > 5000 nM.

In the case of `O=C(NCc1cccnc1)Nc1ccc(NS(=O)(=O)c2c(F)cc(F)cc2Br)cc1` [Example R61, 2-bromo-4,6-difluoro-N-(4-{[(pyridin-3-ylmethyl)carbamoyl]amino}phenyl)benzene-sulfonamide], the IC50 by setting is: under setting [1], 1.8 nM; under setting [2], > 1000 nM.

The record behind these values is patent publication US8912184B1, “Therapeutic and diagnostic methods” (Alzheimer's Institute of America, Inc., priority 2010, dated 2014).
